Test results taken from patent US10206909B2, “3-(1H-pyrrolo[2,3-B]pyridin-2-yl)-1H-pyrazolo[4,3-B]pyridines and therapeutic uses thereof” (Samumed, LLC, priority 2015, dated 2019).

Legend:
Type in all cases: cell-based
SW480 colon cancer cells = test: Cell viability assay (CellTiter-Blue); conditions: Homo sapiens; for EC50: 96 h, SW480 cell viability, four days, CellTiter-Blue; for inhibition at 10 µM: given where EC50 >10 μM, SW480 viability, read-out: percent inhibition at 10 μM
Experimental: Representative compounds were screened using the following assay procedure to assess the effect on cell viability as described below.
Each compound was dissolved in DMSO as a 10 mM stock and used to prepare compound source plates. Serial dilution (1:3, 8-point dose-response curves from 10 μM to 0.0045 μM) and compound transfer was performed using the ECHO 550 (Labcyte, Sunnyvale, Calif.) into 96-well clear bottom, black-walled plates (Corning-Costar).
Approximately 2×10^3 SW480 colon cancer cells were seeded into each well and allowed to incubate in the presence or absence of compound for four days at 37° C./5% CO2. Eight replicates of DMSO-treated cells served as controls and cells treated with compound were performed in duplicate.
After incubation, 20 μL of CellTiter-Blue (Promega) was added to each well allowed to incubate for approximately 3 hours. This reagent was a buffered solution which contains resazurin, metabolically active cells were able to reduce rezarurin (blue) into resorufin (pink) which was highly fluorescent. This measured fluorescence was used as a readout for cell viability.
After incubation, the plates were read at Ex 560 nm Em 590 nm (Cytation 3, BioTek). Dose-response curves were generated and EC50 concentration values were calculated using non-linear regression curve fit in the GraphPad Prism (San Diego, Calif.) or Dotmatics' Studies Software (Bishops Stortford, UK). For EC50 of >10 μM, the percent inhibition at 10 μM is provided.

IL-6 (THP-1 cells) = test: IL-6 inhibition in LPS-stimulated THP-1 cells (HTRF); conditions: Homo sapiens; for EC50: THP-1 cells, LPS 500 ng/mL, 22 hours, IL6 HTRF; for inhibition at 10 µM: given where EC50 >10 μM, THP-1, IL6, read-out: percent inhibition at 10 μM
Experimental: Human Monocyte Cell Culture: Human monocyte cell line (THP-1 cells; Catalog # TIB-202, ATCC, Manassas, Va.) were cultured in Roswell Park Memorial Institute (RPMI) 1640 Medium (Catalog #21870-100, Buffalo, N.Y.) with 1% L-glutamine, 1% HEPES, 1% Sodium Pyruvate, 2% Sodium Bicarbonate supplemented with 100 units/mL penicillin, 50 μg/mL streptomycin, 2-mercaptoethanol (0.05 mM) [basal medium] and 10% fetal bovine serum (Catalog #16140089, Life Technologies, Carlsbad, Calif.) at 37° C. and 5% CO2.
Compound Screening: THP-1 cells were cultured in basal media with 1% FBS for 24 hours before the start of the assay. Each compound was dissolved in DMSO as a 10 mM stock and used to prepare compound source plates. Serial dilution (1:3, 10-point dose-response curves starting from 10 μM) and compound transfer was performed using the ECHO 550 (Labcyte, Sunnyvale, Calif.) into 384-well white low volume assay plates (Greiner Bio-One) with appropriate DMSO backfill for a final DMSO concentration of 0.1%. THP-1 cells were plated at 5000 cells/well in the 384-well plates and incubated at 37° C. for 2 h. 500 ng/mL of LPS was added after 2 hours and cells were incubated for another 22 hours at 37° C. Plates were spun in a centrifuge for 1 minute at […] and a mixture of anti-IL6 XL665, and anti-IL6 Cryptate diluted in reconstitution buffer (Cisbio Inc.) was added to each well. Following incubation for 3 hrs at room temperature, Homogeneous Time-Resolved Fluorescence (HTRF) was measured using the Envision (Perkin Elmer) at 665 nm and […]. The ratio of fluorescence at 665 nm to 620 nm was used as a readout for IL6 quantification. All samples were processed in duplicate. Readings were normalized to DMSO treated cells and normalized activities were utilized for EC50 calculations using the dose-response log (inhibitor) vs. response —variable slope (four parameters) nonlinear regression feature available in GraphPad Prism 5.0 (or Dotmatics). For EC50 of >10 μM, the percent inhibition at 10 μM is provided.

[1] = system: Wnt activity (Sp5-Luc reporter, SW480 colon carcinoma cells); test: Wnt activity screening assay: Sp5-Luc reporter gene assay in SW480 cells; conditions: Homo sapiens; for EC50: SW480 cells, overnight incubation; for inhibition at 10 µM: given where EC50 >10 μM, SW480, read-out: percent inhibition at 10 μM
From the text: The screening assay for Wnt activity is described as follows. Reporter cell lines can be generated by stably transducing cancer cell lines (e.g., colon cancer) or primary cells (e.g., IEC-6 intestinal cells) with a lentiviral construct that includes a Wnt-responsive promoter driving expression of the firefly luciferase gene.
SW480 colon carcinoma cells were transduced with a lentiviral vector expressing luciferase with a human Sp5 promoter consisting of a sequence of eight TCF/LEF binding sites. SW480 cells stably expressing the Sp5-Luc reporter gene and a hygromycin resistance gene were selected by treatment with 150 μg/mL of hygromycin for 7 days. These stably transduced SW480 cells were expanded in cell culture and used for all further screening activities. Each compound was dissolved in DMSO as a 10 mM stock and used to prepare compound source plates. Serial dilution (1:3, 10-point dose-response curves starting from 10 μM) and compound transfer was performed using the ECHO 550 (Labcyte, Sunnyvale, Calif.) into 384-well white solid bottom assay plates (Greiner Bio-One) with appropriate DMSO backfill for a final DMSO concentration of 0.1%. For Sp5-Luc reporter gene assays, the cells were plated at 4,000 cells/well in 384-well plates with medium containing 1% fetal bovine serum and incubated overnight at 37° C. and 5% CO2. Following incubation, 20 μl of BrightGlo luminescence reagent (Promega) was added to each well of the 384-well assay plates. The plates were placed on an orbital shaker for 2 min and then luminescence was quantified using the Envision (Perkin Elmer) plate reader. Readings were normalized to DMSO only treated cells, and normalized activities were utilized for EC50 calculations using the dose-response log (inhibitor) vs. response -variable slope (four parameters) nonlinear regression feature available in GraphPad Prism 5.0 (or Dotmatics). For EC50 of >10 μM, the percent inhibition at 10 μM is provided.

| SMILES | EC50 (SW480 colon cancer cells) [µM] | EC50 (IL-6 (THP-1 cells)) [µM] | EC50 [1] [µM] | inhibition at 10 µM (SW480 colon cancer cells) [%] | inhibition at 10 µM (IL-6 (THP-1 cells)) [%] | inhibition at 10 µM [1] [%] |
| --- | --- | --- | --- | --- | --- | --- |
| FC1(F)CCN(Cc2cncc(-c3ccc4[nH]nc(-c5cc6c(-c7cccnc7)ccnc6[nH]5)c4n3)c2)C1 [Compound 110, 5-(5-((3,3-Difluoropyrrolidin-1-yl)methyl)pyridin-3-yl)-3-(4-(pyridin-3-yl)-1H-pyrrolo[2,3-b]pyridin-2-yl)-1H-pyrazolo[4,3-b]pyridine] | > 10 | 4.93 | > 10 | 12.3 |  | 47.7 |
| Nc1cncc(-c2ccc3[nH]nc(-c4cc5c(-c6ccncc6)ccnc5[nH]4)c3n2)c1 [Compound 115, 5-(3-(4-(Pyridin-4-yl)-1H-pyrrolo[2,3-b]pyridin-2-yl)-1H-pyrazolo[4,3-b]pyridin-5-yl)pyridin-3-amine] | > 10 | > 10 | > 10 | 17.5 | 22.2 | 24.4 |
| Cc1ccncc1-c1ccc2[nH]nc(-c3cc4c(-c5ccncc5)ccnc4[nH]3)c2n1 [Compound 117, 5-(4-Methylpyridin-3-yl)-3-(4-(pyridin-4-yl)-1H-pyrrolo[2,3-b]pyridin-2-yl)-1H-pyrazolo[4,3-b]pyridine] | > 10 | > 10 | > 10 | 3.4 | 45.3 | 11.8 |
| c1cc(-c2ccnc3[nH]c(-c4n[nH]c5ccc(-c6cncc(CN7CCCCC7)c6)nc45)cc23)ccn1 [Compound 127, 5-(5-(Piperidin-1-ylmethyl)pyridin-3-yl)-3-(4-(pyridin-4-yl)-1H-pyrrolo[2,3-b]pyridin-2-yl)-1H-pyrazolo[4,3-b]pyridine] | > 10 | > 10 | > 10 | 14.5 | 30.2 | 5.8 |
| Cc1ccncc1-c1ccc2[nH]nc(-c3cc4c(N5CCCCC5)ccnc4[nH]3)c2n1 [Compound 173, 5-(4-Methylpyridin-3-yl)-3-(4-(piperidin-1-yl)-1H-pyrrolo[2,3-b]pyridin-2-yl)-1H-pyrazolo[4,3-b]pyridine] | > 10 | 0.967 | 2.36 | 49.2 |  |  |
| CN(C)Cc1cncc(-c2ccc3[nH]nc(-c4cc5c(N6CCCCC6)ccnc5[nH]4)c3n2)c1 [Compound 181, N,N-Dimethyl-1-(5-(3-(4-(piperidin-1-yl)-1H-pyrrolo[2,3-b]pyridin-2-yl)-1H-pyrazolo[4,3-b]pyridin-5-yl)pyridin-3-yl)methanamine] | > 10 | > 10 | > 10 | 47.5 | 29.2 | 4.1 |
| c1ncc(-c2ccc3[nH]nc(-c4cc5c(N6CCCCC6)ccnc5[nH]4)c3n2)cn1 [Compound 195, 3-(4-(Piperidin-1-yl)-1H-pyrrolo[2,3-b]pyridin-2-yl)-5-(pyrimidin-5-yl)-1H-pyrazolo[4,3-b]pyridine] | > 10 | > 10 | > 10 | 22.9 | 26 | 12.6 |

Second part, led by results:

| EC50 (SW480 colon cancer cells) [µM] | EC50 (IL-6 (THP-1 cells)) [µM] | EC50 [1] [µM] | SMILES | inhibition at 10 µM (SW480 colon cancer cells) [%] | inhibition at 10 µM (IL-6 (THP-1 cells)) [%] | inhibition at 10 µM [1] [%] |
| --- | --- | --- | --- | --- | --- | --- |
| > 10 | 0.008 | 0.255 | CC(C)Nc1cncc(-c2ccc3[nH]nc(-c4cc5c(-c6cccnc6)ccnc5[nH]4)c3n2)c1 [Compound 96, N-Isopropyl-5-(3-(4-(pyridin-3-yl)-1H-pyrrolo[2,3-b]pyridin-2-yl)-1H-pyrazolo[4,3-b]pyridin-5-yl)pyridin-3-amine] | 0 |  |  |
| > 10 | > 10 | > 10 | c1cncc(-c2ccnc3[nH]c(-c4n[nH]c5ccc(-c6ccncc6)nc45)cc23)c1 [Compound 102, 3-(4-(Pyridin-3-yl)-1H-pyrrolo[2,3-b]pyridin-2-yl)-5-(pyridin-4-yl)-1H-pyrazolo[4,3-b]pyridine] | 10 | 23.9 | 9.5 |
| 3.72 | > 10 | > 10 | c1cc(-c2ccnc3[nH]c(-c4n[nH]c5ccc(-c6cncc(CNCC7CCCC7)c6)nc45)cc23)ccn1 [Compound 137, 1-Cyclopentyl-N-((5-(3-(4-(pyridin-4-yl)-1H-pyrrolo[2,3-b]pyridin-2-yl)-1H-pyrazolo[4,3-b]pyridin-5-yl)pyridin-3-yl)methyl)methanamine] |  | 40.8 | 19.5 |
| > 10 | > 10 | > 10 | c1cc(N2CCCCC2)c2cc(-c3n[nH]c4ccc(-c5cncc(CN6CCCCC6)c5)nc34)[nH]c2n1 [Compound 183, 3-(4-(Piperidin-1-yl)-1H-pyrrolo[2,3-b]pyridin-2-yl)-5-(5-(piperidin-1-ylmethyl)pyridin-3-yl)-1H-pyrazolo[4,3-b]pyridine] | 45.5 | 18.2 | 6.5 |
| 3.53 | 0.34 | > 10 | CCCCC(=O)Nc1cncc(-c2ccc3[nH]nc(-c4cc5c(N6CCCCC6)ccnc5[nH]4)c3n2)c1 [Compound 187, N-(5-(3-(4-(Piperidin-1-yl)-1H-pyrrolo[2,3-b]pyridin-2-yl)-1H-pyrazolo[4,3-b]pyridin-5-yl)pyridin-3-yl)pentanamide] |  |  | 14.3 |
| > 10 | 6.95 | 5.27 | FC1(F)CCN(Cc2cncc(-c3ccc4[nH]nc(-c5cc6c(N7CCCCC7)ccnc6[nH]5)c4n3)c2)C1 [Compound 194, 5-(5-((3,3-Difluoropyrrolidin-1-yl)methyl)pyridin-3-yl)-3-(4-(piperidin-1-yl)-1H-pyrrolo[2,3-b]pyridin-2-yl)-1H-pyrazolo[4,3-b]pyridine] | 28.3 |  |  |
| > 10 | > 10 | > 10 | c1ccc(-c2ccc3[nH]nc(-c4cc5c(N6CCCCC6)ccnc5[nH]4)c3n2)nc1 [Compound 196, 3-(4-(Piperidin-1-yl)-1H-pyrrolo[2,3-b]pyridin-2-yl)-5-(pyridin-2-yl)-1H-pyrazolo[4,3-b]pyridine] | 2.4 | 46.5 | 9.8 |
